From US20090208970A1, “Probe for detection and quantification of inositol-1,4,5-trisphosphate and a method for detecting and quantifying inositol-1,4,5-trisphosphate using the same” (priority 2004, published 2009)

What was measured:
Assay type in all cases: cell-based
[1] = test system: purine receptor of the MDCK cell; assay: ATP-dependent IP3 generation in MDCK cells visualized with the probe
Procedure: FIG. 2 is visualization of ATP-dependent IP3 generation in MDCK cells using the probe of this invention. (a), 100 μM ATP; (b), […]; and (c), 1 μM ATP.
(§1) cDNA encoding a probe for IP3 detection and quantification (FIG. 1) was prepared by a genetic engineering method, and introduced into MDCK cell. Expression of the probe in the cytoplasm was confirmed since fluorescence was observed from the cells with a fluorescence microscope.
An increase in fluorescence intensity ratio (CFP/YFP) was observed by stimulating a purine receptor of the MDCK cell as obtained in Example 1 with 100 μM ATP (FIG. 2a).

MDCK cell nucleus = assay: IP3 generation in the MDCK cell nucleus with nuclear-localized probe; conditions: 100 μM ATP stimulation, probe with nuclear localization sequence in nucleus, FIG. 4
From the text: The probe was linked with the nuclear localization sequence of SEQ ID NO: 4 at the C terminal thereof, and expressed in MDCK cell.

[2] = molecular target: T1, probe for IP3 detection and quantification expressed in MDCK cell (Homo sapiens, UniProt Q14643); assay: IP3 microinjection into MDCK cell expressing the FRET probe; conditions: each introduction of a small amount of IP3 by microinjection
T1 construct: a region from 224th amino acid to 579th amino acid of the type 1 IP3 receptor; expressed in transfected cells; host or cells: MDCK cells
T1 sequence (Q14643 224-579): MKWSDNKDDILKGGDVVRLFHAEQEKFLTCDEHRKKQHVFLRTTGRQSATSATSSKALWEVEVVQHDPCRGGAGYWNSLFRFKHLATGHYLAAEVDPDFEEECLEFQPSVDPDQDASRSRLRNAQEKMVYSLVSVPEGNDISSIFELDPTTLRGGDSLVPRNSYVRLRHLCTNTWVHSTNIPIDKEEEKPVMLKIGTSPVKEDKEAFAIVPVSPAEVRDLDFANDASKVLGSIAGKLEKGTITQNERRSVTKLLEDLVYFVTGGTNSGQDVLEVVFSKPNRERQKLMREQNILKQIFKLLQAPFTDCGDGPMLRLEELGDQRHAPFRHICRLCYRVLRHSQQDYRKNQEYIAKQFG
Procedure: as §1
Into the MDCK cell expressing the probe as obtained in Example 1, IP3 was introduced by a microinjection method.

[3] = test system: neuron prepared from hippocampus of a rat embryo; assay: IP3 kinetics in neuron expressing the probe on glutamate stimulation; conditions: 20 μM glutamate stimulation, cell body and dendrites, FIG. 3
From the text: The probe was expressed in a neuron prepared from hippocampus of a rat embryo, and IP3 kinetics in the neuron was observed.

SMILES: Nc1ncnc2c1ncn2[C@@H]1O[C@H](COP(=O)(O)OP(=O)(O)OP(=O)(O)O)[C@@H](O)[C@H]1O [ATP]
- response of the probe ([1]; 1 μM ATP stimulation, FIG. 2c): a response of the probe was also observed depend on ATP concentration
- response of the probe ([1]; 10 μM ATP stimulation, FIG. 2b): a response of the probe was also observed depend on ATP concentration
- fluorescence intensity ratio (CFP/YFP) ([1]; 100 μM ATP stimulation, FIG. 2a): increase
- IP3 concentration (MDCK cell nucleus): temporally increased

SMILES: O=P(O)(O)O[C@@H]1[C@H](O)[C@H](O)[C@@H](OP(=O)(O)O)[C@H](OP(=O)(O)O)[C@H]1O [IP3, Inositol-1,4,5-trisphosphate]
- CFP/YFP fluorescence intensity ratio [2]: stepwise increased and saturated soon

SMILES: N[C@@H](CCC(=O)O)C(=O)O [glutamate]
- IP3 concentration [3]: temporally increased in not only the cell body but also the dendrites
